Among the data in patent publication US6323235A, “Benzene-condensed heterocyclic derivatives and their uses” (priority 1995, dated 2001) are Ki and IC50 values, retold here.

For experiment [1], the target named is T1, PGI2 receptor (Homo sapiens, UniProt P43119).
T1 construct: platelet membrane fraction having a concentration of 0.1 mg protein/ml; endogenous in cells
The experiment is described as follows: PGI2 Receptor Binding Test ([3H]APS-314d, platelet membrane fraction). The note with it: platelet membrane fraction 0.1 mg protein/ml, 4° C., 60 minutes, Ki=IC50/[1+(radioactive ligand concentration/Kd)]. Here is the method: PGI2 Receptor Binding Test
As the ligand of PGI2 receptor, tritium-labelled (1R,2R,3aS,8bS)-2,3,3a,8-tetrahydro-2-hydroxy-1-[(E)-(3S,4S)-3-hydroxy-4-methyl-1-octene-6-ynyl]-1H-cyclopenta[b]benzofuran-5-butanoic acid ([^3 H]APS-314d) was used. The saturation test was carried out by reacting [^3 H]APS-314d (100 μl) having a final concentration of 3-100 nM with a suspension (100 μl) of platelet membrane fraction having a concentration of 0.1 mg protein/ml at 4° C. for 60 minutes under shaking. The competition test was carried out by mixing a mixture (100 μl) of a test compound dissolved in an appropriate solvent and then diluted and [^3 H]APS-314d, and the suspension of platelet membrane fraction (100 μl) having a concentration of 0.1 mg protein/ml, and allowing the mixture to react at 4° C. for 60 minutes under shaking. After the reaction, the resultant was filtered through a glass filter using a cell harvester to collect the membrane fraction on the glass filter. The filter was washed with a iced buffer and radioactivity was measured by scintillation counter. The non-specific binding to substances other than the platelets was measured by the reaction in the presence of sodium beraprost having a final concentration of 10 nM. The IC50 value of the test compound and Hill coefficient in the binding test was determined by Pseudo-Hill plot. The receptor dissociation constant (Ki value) was calculated according to the following equation from the IC50 value and the receptor dissociation constant (Kd value) of [^3 H]APS-314d determined in the saturation test.
Ki=IC50 /[1+(radioactive ligand concentration/Kd)]

For experiment [2], the system named is platelet aggregation induced by TXA2 agonist U-46619. Put plainly: Platelet Aggregation-inhibition Action 1 (U-46619-induced, platelet-rich plasma). The note with it: U-46619 1-4 μM final, PRP, compound added one minute before U-46619. Type of experiment: cell-based. How it is done:
Platelet Aggregation-inhibition Action 1
(§1) Blood collected from medial cubital vein is centrifuged at 800 rmp for 10 minutes and the upper portion of the resultant is collected as platelet-rich plasma (PRP). The PRP is dividedly poured into small test tubes and a TXA2 agonist U-46619 is added thereto (final concentration: 1-4 μM) so as to induce platelet aggregation. The degree of platelet aggregation is measured in terms of change in turbidity by a platelet aggregation measuring apparatus (Hematoracer, NIKO BIOSCIENCE). The compound is added one minute before the addition of U-46619 and the concentration of the compound at which the aggregation is inhibited by 50% is calculated as IC50 value.

Experiment [3] relates to platelet aggregation induced by ADP. Put plainly: Platelet Aggregation-Inhibition Action 2 (ADP-induced, platelet-rich plasma). The class given is cell-based. The note with it: ADP 1-3 μM final, PRP, compound added one minute before ADP. How it is done: Platelet Aggregation-Inhibition Action 2
as §1, with “PRP).” for “(PRP).”, “ADP” for “a TXA2 agonist U-46619”, “1-3” for “1-4”, “Hematoracer,” for “(Hematoracer,”, “ADP” for “U-46619 and”

For experiment [4], the target named is T2, TXA2 receptor (Homo sapiens, UniProt P21731).
T2 construct: the finally obtained precipitate was collected as the platelet membrane fraction; endogenous in cells; host or cells: membrane fraction of human platelets
T2 sequence (P21731 1-343): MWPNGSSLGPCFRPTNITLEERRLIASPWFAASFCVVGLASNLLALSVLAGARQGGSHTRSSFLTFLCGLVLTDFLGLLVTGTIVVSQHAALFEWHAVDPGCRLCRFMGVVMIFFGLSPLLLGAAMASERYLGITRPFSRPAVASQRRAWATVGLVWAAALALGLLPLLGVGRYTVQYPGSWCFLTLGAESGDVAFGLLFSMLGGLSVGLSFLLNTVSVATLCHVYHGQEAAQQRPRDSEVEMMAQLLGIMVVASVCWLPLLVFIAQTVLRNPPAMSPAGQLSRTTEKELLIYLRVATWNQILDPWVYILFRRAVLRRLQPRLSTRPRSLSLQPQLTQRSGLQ
The experiment is described as follows: TXA2 Receptor Binding Test 2 ([3H]SQ29548, human platelet membrane fraction). The following applies: 25° C., 30 minutes, pH 7.4, Ki=IC50/[1+(radioactive ligand concentration/Kd)]. How it is done:
TXA2 Receptor Binding Test 2
Blood collected from human forearm vein and ACD solution (85 mM trisodium citrate, 65 mM citric acid, 2% glucose) in an amount of 1/10 volume of the blood were mixed the resultant was dividedly poured into Spitz tubes an amount of 8 ml/tube. The mixture was centrifuged at 200×g for 10 minutes at room temperature to obtain platelet-rich plasma and the obtained platelet-rich plasma was centrifuged at 1000×g for 15 minutes to obtain platelets. The platelets were washed by centrifugation using a washing buffer (115 mM sodium chloride, 4.3 mM potassium dihydrogen phosphate, 5.5 mM glucose, 1 mM disodium EDTA, 10 μM indomethacin, pH 6.5) and 1 ml of a melting buffer (10 mM Tris(hydroxymethyl)aminomethane, 5 mM magnesium chloride, 2 mM disodium EDTA, pH 7.4) was added. The resultant was frozen in liquid nitrogen and thawed at room temperature. By repeating freezing in liquid nitrogen and thawing totally three times, the platelets were ruptured. The resultant was washed three times by ultracentrifugation (40,000×g, each 20 minutes) using iced 5 mM Tris-HCl buffer, and the finally obtained precipitate was collected as the platelet membrane fraction.
As the ligand of TXA2, tritium-labelled SQ29548 ([^3 H]SQ29548) was used. As the solvent for the receptor binding reaction, 50 mM Tris-HCl buffer (5 mM magnesium chloride, pH 7.4) was used. […] The filter was washed with a iced buffer and radioactivity was measured by scintillation counter. The non-specific binding to substances other than the platelets was measured by the reaction in the presence of SQ29548 having a final concentration of […]. The IC50 value of the test compound and Hill coefficient in the binding test was determined by Pseudo-Hill plot. The receptor dissociation constant (Ki value) was calculated according to the following equation from the IC50 value and the receptor dissociation constant (Kd value) of [^3 H]SQ29548 determined in the saturation test. […]

T1 sequence (P43119 whole entry): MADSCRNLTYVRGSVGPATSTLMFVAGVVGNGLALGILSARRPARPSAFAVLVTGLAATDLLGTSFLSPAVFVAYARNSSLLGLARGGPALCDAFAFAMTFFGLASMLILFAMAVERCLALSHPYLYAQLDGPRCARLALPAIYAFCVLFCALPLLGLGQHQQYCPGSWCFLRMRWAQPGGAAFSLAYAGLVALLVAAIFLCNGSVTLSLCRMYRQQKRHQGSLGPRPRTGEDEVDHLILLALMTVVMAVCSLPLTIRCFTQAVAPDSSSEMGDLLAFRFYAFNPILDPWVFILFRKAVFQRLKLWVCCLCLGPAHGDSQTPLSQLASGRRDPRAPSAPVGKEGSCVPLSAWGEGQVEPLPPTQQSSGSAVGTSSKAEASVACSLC

Consider `O=C(O)COc1cccc2c(CCSC(c3ccccc3)c3ccccc3)coc12` [Example 68], for which the Ki in experiment [1] came to 410 nM. Besides, the IC50 in experiment [2] turned out to be 900 nM; in experiment [3] it was 6200 nM.

As to `COC(=O)COc1cccc2c(CCSC(c3ccccc3)c3ccccc3)coc12` [Example 67, Methyl (3-(2-(diphenylmethylthio)ethyl)benzofuran-7-yloxy)acetate], the Ki in experiment [4] came out at 310 nM.

As to `O=C(O)COc1cccc2c1ccn2CCCC(c1ccccc1)c1ccccc1` [Example 118, (1-(4,4-diphenylbutyl)indole-4-yloxy)acetic acid], the Ki in experiment [1] was 440 nM; in experiment [4], 3600 nM. The IC50 is 1700 nM in experiment [2] and 3600 nM in experiment [3].

`O=C(O)COc1cccc2c(COCCC(c3ccccc3)c3ccccc3)coc12` [Example 48, (3-((3,3-diphenylpropyloxy)methyl)benzofuran-7-yloxy)acetic acid]: the values for the Ki in experiment [1] and in experiment [4] were 380 nM and 7700 nM, respectively. The IC50 in experiment [2] was 4800 nM; in experiment [3], 7800 nM.
